Assay results published in patent US20080206738A1, “Compositions and methods for modulating S-nitrosoglutathione reductase” (Duke University, priority 2003, published 2008).
One block for each molecule: values may come before it.

Legend:
[1] = test system: LPS-challenged GSNOR−/− mice; assay: iNOS inhibition with 1400 W in LPS-challenged GSNOR−/− mice (endotoxic shock); type: in vivo, mouse
Excerpt: Blood was obtained by cardiac puncture after animals were euthanized by CO2 inhalation. The following serum chemistries were quantified by Antech Diagnostics (Farmingdale, N.Y.): alanine aminotransferase (ALT), aspartate aminotransferase (AST), creatine phosphokinase (CPK), urea nitrogen (BUN), creatinine, amylase, lipase, lactate dehydrogenase, alkaline phosphatase, total protein, globulin, albumin, calcium, magnesium, sodium, potassium, chloride, phosphorus, glucose, bilirubin, cholesterol, triglycerides, and osmolality.
Serum nitrate and nitrite were measured by capillary electrophoresis (CE) (Zunic et al., 1999) with a P/ACE MDQ system (Beckman) and by chemiluminescence (Sievers NO Analyzer). For CE, sera were diluted (1:10) with water and filtered through a 5 kDa cut-off membrane. Electrophoresis of the filtered samples and of nitrate and nitrite standards was carried out in a neutral capillary with Tris buffer (100 mM, pH 8.0), and monitored by absorbance at 214 nm. Nitrite concentrations are higher when measured by CE than by chemiluminescence (Zunic et al., 1999), but no relative differences between CE and chemiluminescence were observed.
LPS (E. coli, serotype 026:B6, Sigma) at a dosage of 150,000 endotoxin units/g (EU/g) was injected intraperitoneally into C57BL/6 and GSNOR^−/− mice. The mice were matched for age (11-12 weeks old), gender, and weight. LPS used for the males was lot number 050K4117 (15 million EU/mg) and LPS used for the females was lot number 101K4080 (3 million EU/mg). Studies were done in 45 additional male mice (22 wild-type and 23 GSNOR^−/−) administered lot number 101K4080. […] Phosphate-buffered saline (PBS, 20 μl/g) was injected in controls. In additional sets of experiments, LPS-challenged GSNOR^−/− mice were injected subcutaneously with the iNOS inhibitor 1400 W (1 μg/g, Cayman) or PBS (10 μl/g). Injections were performed at 6, 24 and 30 hours after LPS, or at 24, 42 and 48 hours after LPS.
Liver homogenates were prepared in lysis buffer (20 mM Tris-HCl, pH 8.0, 0.5 mM EDTA, 100 μM diethylenetriamine pentaacetic acid, 0.1% NP-40 and 1 mM phenylmethylsulfonyl fluoride). SNO levels in the total lysate and in a fraction filtered through a 5 kDa cut-off ultrafiltration membrane (low-mass SNO) were measured by photolysis-chemiluminescence (Liu et al., 2000b) and normalized for protein content.
Survival data on day 6 after LPS treatment were analyzed by both the χ^2 test and the Fisher exact test of contingency tables, with similar results. Blood pressure, SNO levels and serum chemistries were analyzed with the Student's t-test or with the nonparametric Mann-Whitney test.
Additional experiments were performed to establish the contribution of nitrosative stress to the pathogenesis of endotoxic shock. LPS-challenged GSNOR^−/− mice were treated with 1400 W, a selective iNOS inhibitor. Administration of 1400 W, initiated 6 h following LPS injection, reduced serum nitrate (i.e., NOS activity) by about 50% (FIG. 7A, P=0.015) and liver injury by about 90% (FIG. 7C, P=0.020). This improvement coincided with a reduction of liver SNO by about 90% (FIG. 7B). […] By comparison, PBS (volume control) had little effect (FIG. 7D vs. FIG. 3D). When administration of 1400 W was delayed for 24 h following LPS injection, this allowed SNOs to accumulate to hazardous levels, and the protection conferred by NOS inhibition was lost (3 out of 5 female GSNOR^−/− mice died).

[2] = test system: animal models of endotoxic shock; settings: literature (Feihl et al., 2001; Ou et al., 1997); cited from earlier work
GRK2 [3] = target: T1, GRK2 (Homo sapiens, UniProt P25098); assay: Purified GRK2-mediated in vitro phosphorylation of a soluble peptide substrate (RRREEEEESAAA); type: biochemical; settings: 500, 50, and 5 μM; n=2; P<0.05
T1 sequence (P25098 1-689): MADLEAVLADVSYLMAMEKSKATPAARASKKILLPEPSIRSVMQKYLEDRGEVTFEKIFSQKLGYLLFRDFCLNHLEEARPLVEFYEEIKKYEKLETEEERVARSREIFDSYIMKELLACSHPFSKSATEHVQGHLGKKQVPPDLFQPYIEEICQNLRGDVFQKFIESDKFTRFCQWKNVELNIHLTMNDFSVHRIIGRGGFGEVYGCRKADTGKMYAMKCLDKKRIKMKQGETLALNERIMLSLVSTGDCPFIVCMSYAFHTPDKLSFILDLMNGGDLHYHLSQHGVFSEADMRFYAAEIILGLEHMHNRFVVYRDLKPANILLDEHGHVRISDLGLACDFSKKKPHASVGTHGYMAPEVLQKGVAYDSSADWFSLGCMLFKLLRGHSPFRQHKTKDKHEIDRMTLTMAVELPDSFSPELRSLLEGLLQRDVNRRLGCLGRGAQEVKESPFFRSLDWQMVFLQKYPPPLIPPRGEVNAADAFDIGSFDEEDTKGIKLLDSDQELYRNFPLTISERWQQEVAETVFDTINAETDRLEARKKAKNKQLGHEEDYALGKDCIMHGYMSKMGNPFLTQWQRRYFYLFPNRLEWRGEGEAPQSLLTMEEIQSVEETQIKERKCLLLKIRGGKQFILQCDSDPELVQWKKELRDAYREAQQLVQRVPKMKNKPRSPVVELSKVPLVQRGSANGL
Procedure: FIGS. 12A-12B: Effect of cysNO (A: 500, 50, and 5 μM) and GSNO (B: 500, 50, and 5 μM) on purified GRK2 mediated in vitro phosphorylation of a soluble peptide substrate (RRREEEEESAAA; SEQ ID NO:30) (n=2; *P<0.05).
To confirm this, experiments were performed to examine the capacity of SNOs to inhibit purified GRK2-mediated phosphorylation of a synthetic peptide substrate (RRREEEEESAAA; SEQ ID NO:30).

cardiac β-ARs = assay: Chronic isoproterenol-induced cardiac hypertrophy and β-AR down-regulation in mice (mini-osmotic pump); type: in vivo, mouse
Procedure: FIGS. 13A-13C: Results of Cardiac Studies. FIG. 13A: Heart weight to body weight ratio (hw:bw, mg:g) (n=10); FIG. 13B: Cardiac β-AR density (BMax, fmol/mg protein (n=5); FIG. 13C: Cardiac PARK protein expression levels (n=4), in mice following mini-osmotic pump implantation and treatment for 7 days with either PBS, isoproterenol (ISO) (30 mg/kg/day), GSNO (10 mg/kg/day) or a combination of ISO and GSNO. All data expressed as mean (+/−SEM) (*P<0.05 versus PBS treated mice, +P<0.05 versus ISO treated mice, unpaired t test).
One well established model of experimental cardiac hypertrophy in the mouse involves the chronic administration of the β-AR agonist, isoproterenol. This treatment leads to a functional uncoupling and down-regulation of cardiac β-ARs and the development of a significant increase in wall mass. Experiments were performed to study the effects of GSNO on the development of cardiac hypertrophy and its ability to alter the pattern of β-AR down-regulation associated with chronic isoproterenol stimulation.
Whole cell and membrane receptor/ligand binding was performed to assess functional affinity of receptor for ligand and overall receptor density as described previously. In particular, whole cell and membrane binding was assessed for cells treated with multiple concentrations of NO/SNO in the presence and absence of desensitizing conditions (agonist pre-stimulation).
In contrast, the combined infusion of GSNO with ISO maintained P receptor density (FIG. 13B) because it inhibits PARK (GRK2) (FIGS. 12A-12B). Therefore, inhibitors of GSNOR alone or in combination with β-agonists could be used to improve heart failure, or other vascular disorders such as hypertension and asthma.

GRK2 [4] = target: T1, GRK2; assay: GRK2-mediated phosphorylation of purified β2-AR in a reconstituted system; type: biochemical; settings: cysNO 500, 50, 5 μM; isoproterenol (10 μM) stimulated; β2-AR reconstituted in synthetic vesicles
Procedure: (§1) FIGS. 11A-11B. Results from GRK studies. FIG. 11A. Representative gel from experiments examining the effect of cysNO (500, 50, and 5 μM) on isoproterenol (10 μM) stimulated GRK2 mediated receptor phosphorylation using purified β2-AR reconstituted in synthetic vesicles and purified GRK2. FIG. 11B: Representative gel from experiments examining the effect of cysNO (5, 50, and 500 μM) light stimulated GRK2 mediated phosphorylation of rhodopsin using purified bovine rod outer segments and purified GRK2.
(§2) Previous data provided strong evidence supporting the hypothesis that NO prevented GRK (G protein-coupled receptor kinase)-mediated phosphorylation of the β2-AR (adrenergic receptor). Further experiments were required to determine whether NO was acting directly on the receptor or the GRKs. To elucidate the site of NO action, its effect was tested on GRK2-mediated phosphorylation of the β2-AR and on a soluble peptide substrate using purified proteins in a reconstituted system.

GRK2 [5] = target: T1, GRK2; assay: GRK2-mediated phosphorylation of rhodopsin from purified bovine rod outer segments; type: biochemical; settings: cysNO 5, 50, 500 μM, light stimulated
Procedure: as §1, §2

[6] = administration of 1400 W delayed for 24 h following LPS injection
[7] = GSNO 10 mg/kg/day via osmotic mini-pump with ISO 30 mg/kg/day
[8] = ISO infused for 7 days using a pump (30 mg/kg/day)

SMILES: CC(=N)NCc1cccc(CN)c1 [1400 W, N-[3-(aminomethyl)benzyl]acetamidine]
survival rate of LPS-challenged GSNOR−/− mice ([1]; 1400 W initiated 6 h following LPS injection, P=0.03): significantly improved
reduction of serum nitrate (i.e., NOS activity) ([1]; GSNOR−/− mice, 1400 W 1 μg/g s.c. initiated 6 h following LPS injection, P=0.015): about 50%
reduction of liver SNO ([1]; GSNOR−/− mice, 1400 W initiated 6 h following LPS injection): about 90%
reduction of liver injury (serum ALT) ([1]; GSNOR−/− mice, 1400 W initiated 6 h following LPS injection, P=0.020): about 90%
tissue injury in kidney, pancreas, and muscle (serum markers) ([1]; GSNOR−/− mice, 48 h after LPS treatment, 1400 W initiated 6 h following LPS): reduced
female GSNOR−/− mice that died [1, 6]: 3 out of 5
protection conferred by NOS inhibition [1, 6]: lost
effect on injury in animal models of endotoxic shock [2]: either have little effect or worsen injury

GRK2 mediated phosphorylation of the synthetic peptide substrate (GRK2 [3]): significantly inhibited
SMILES: N[C@@H](CCC(=O)N[C@@H](CSN=O)C(=O)NCC(=O)O)C(=O)O [GSNO, S-nitrosoglutathione]
isoproterenol-stimulated changes in heart weight to body weight ratio (cardiac β-ARs; [7]): no effect
β-AR down-regulation (cardiac β-ARs; [7]): significantly decreased
β receptor density (cardiac β-ARs; combined infusion of GSNO with ISO): maintained

SMILES: CC(=N)NCCCC[C@H](N)C(=O)O [N-(1-iminoethyl)-L-lysine, N6-(1-Iminoethyl)-L-lysine]
effect on injury in animal models of endotoxic shock [2]: either have little effect or worsen injury

GRK2 mediated phosphorylation of the synthetic peptide substrate (GRK2 [3]): significantly inhibited
GRK2-mediated phosphorylation of the purified β2-AR (GRK2 [4]): significantly decreased
GRK2-mediated phosphorylation of rhodopsin (GRK2 [5]): significantly decreased
SMILES: N[C@@H](CSN=O)C(=O)O [cysNO]

SMILES: CC(C)NCC(O)c1ccc(O)c(O)c1 (stereo not shown) [isoproterenol]
cardiac weight (cardiac β-ARs; [8]): increases
β adrenergic receptor levels (cardiac β-ARs; [8]): decreased
βARK (GRK2) expression (cardiac β-ARs; [8]): increased
